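GI50 = concentration required for 50% inhibition of growth. TGI denotes the concentration required for complete inhibition of growth.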
Key:
Assay in all cases: DTP human tumour cell line panel, 384-well format
RXF 393 renal = tested on: RXF 393 renal
HCT-116 colon = tested on: HCT-116 colon
TK-10 renal = tested on: TK-10 renal
KM12 colon = tested on: KM12 colon
DU-145 prostate = tested on: DU-145 prostate
SK-OV-3 ovarian = tested on: SK-OV-3 ovarian
HCT-15 colon = tested on: HCT-15 colon
T-47D breast = tested on: T-47D breast
SF-539 CNS = tested on: SF-539 CNS
OVCAR-8 ovarian = tested on: OVCAR-8 ovarian
NCI-H322M lung = tested on: NCI-H322M lung
RPMI-8226 leukemia = tested on: RPMI-8226 leukemia
NCI-H226 lung = tested on: NCI-H226 lung
NCI-H23 lung = tested on: NCI-H23 lung
MDA-MB-231 breast = tested on: MDA-MB-231 breast
M14 melanoma = tested on: M14 melanoma
IGROV1 ovarian = tested on: IGROV1 ovarian
SR leukemia = tested on: SR leukemia
LOX IMVI melanoma = tested on: LOX IMVI melanoma
NCI-H460 NSCLC = tested on: NCI-H460 NSCLC
OVCAR-4 ovarian = tested on: OVCAR-4 ovarian
MOLT-4 leukemia = tested on: MOLT-4 leukemia
HT29 colon = tested on: HT29 colon
A498 renal = tested on: A498 renal
NCI-H522 lung = tested on: NCI-H522 lung
SK-MEL-5 melanoma = tested on: SK-MEL-5 melanoma
HL-60(TB) leukemia = tested on: HL-60(TB) leukemia
UO-31 renal = tested on: UO-31 renal

Work on `COc1ccc2[nH]c3c(c2c1)CCN[C@]31CS[C@@H]2c3c(OC(C)=O)c(C)c4c(c3[C@H](COC1=O)N1[C@@H]2[C@H]2c3c(cc(C)c(OC)c3O)C[C@@H]([C@@H]1O)N2C)OCO4` yielded a TGI (RXF 393 renal) of 0.111 nM, a GI50 (HCT-116 colon) of 0.16 nM and a GI50 (TK-10 renal) of 2.64 nM. It also gave a TGI (TK-10 renal) of 7.17 nM, a GI50 (KM12 colon) of 1.44 nM and a TGI (KM12 colon) of 3.96 nM. The GI50 (DU-145 prostate) was 0.196 nM, the TGI (DU-145 prostate) was 0.367 nM and the GI50 (SK-OV-3 ovarian) was 0.181 nM. The TGI (SK-OV-3 ovarian) was 9.81 nM, the GI50 (HCT-15 colon) was 0.414 nM and the TGI (HCT-15 colon) was 1.06 nM. The GI50 (T-47D breast) was 0.41 nM, the TGI (T-47D breast) was 2.56 nM and the GI50 (SF-539 CNS) was 0.0587 nM. It also gave a TGI (SF-539 CNS) of 0.111 nM, a GI50 (OVCAR-8 ovarian) of 0.126 nM and a TGI (OVCAR-8 ovarian) of 0.487 nM. It also gave a GI50 (NCI-H322M lung) of 0.522 nM, a TGI (NCI-H322M lung) of 1.29 nM and a GI50 (RPMI-8226 leukemia) of 0.0579 nM. The TGI (RPMI-8226 leukemia) was 0.108 nM, the GI50 (NCI-H226 lung) was 0.109 nM and the TGI (NCI-H226 lung) was 0.452 nM. For the same compound, the GI50 (NCI-H23 lung) was 0.0752 nM, the TGI (NCI-H23 lung) was 0.194 nM and the GI50 (MDA-MB-231 breast) was 0.786 nM. It also gave a TGI (MDA-MB-231 breast) of 2.42 nM, a GI50 (M14 melanoma) of 0.0827 nM and a TGI (M14 melanoma) of 0.191 nM. It also gave a GI50 (IGROV1 ovarian) of 0.416 nM, a TGI (IGROV1 ovarian) of 7.86 nM and a GI50 (SR leukemia) of 0.0186 nM. For the same compound, the TGI (SR leukemia) was 0.0575 nM, the GI50 (LOX IMVI melanoma) was 0.0682 nM and the TGI (LOX IMVI melanoma) was 0.18 nM. The GI50 (NCI-H460 NSCLC) was 0.104 nM, the TGI (NCI-H460 NSCLC) was 0.446 nM and the GI50 (OVCAR-4 ovarian) was 2.59 nM. The TGI (OVCAR-4 ovarian) was 5.77 nM, the GI50 (MOLT-4 leukemia) was 0.0141 nM and the TGI (MOLT-4 leukemia) was 0.0474 nM. For the same compound, the GI50 (HT29 colon) was 0.123 nM, the TGI (HT29 colon) was 0.42 nM and the GI50 (A498 renal) was 1.16 nM. It also gave a TGI (A498 renal) of 2.96 nM, a GI50 (NCI-H522 lung) of 0.0779 nM and a TGI (NCI-H522 lung) of 0.261 nM. It also gave a GI50 (SK-MEL-5 melanoma) of 0.0874 nM, a TGI (SK-MEL-5 melanoma) of 0.243 nM and a GI50 (HL-60(TB) leukemia) of 0.0524 nM. The TGI (HL-60(TB) leukemia) was 0.0982 nM, the GI50 (UO-31 renal) was 1.68 nM and the TGI (UO-31 renal) was 3.1 nM.
